From article PMC12527173, “Cytotoxic, anti-inflammatory, antioxidant, and anti-glyoxalase-I evaluation of chelating substances: In silico and in vitro study” (PLOS One, 2025)
Where two headings read alike, the source gives them in different places.

Columns and labels:
[1] = target: T1, human recombinant Glo-I enzyme (rhGlo-I) (Homo sapiens, UniProt Q04760); assay: Glyoxalase-I (Glo-I) enzyme inhibition assay; type: biochemical; details: for activity against Glo-I (in words): in vitro, compounds classed as inactive
T1 construct: N-terminal Met and 6-His tag (N); purchased R&D Systems; host or cells: E. coli
T1 sequence (Q04760 2-184 limits assumed): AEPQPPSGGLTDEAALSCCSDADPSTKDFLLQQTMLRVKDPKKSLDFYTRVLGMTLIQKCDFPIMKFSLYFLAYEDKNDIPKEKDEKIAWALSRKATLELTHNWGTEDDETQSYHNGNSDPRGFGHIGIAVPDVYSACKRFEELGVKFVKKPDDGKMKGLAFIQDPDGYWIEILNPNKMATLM
Procedure: Solvents and chemicals were procured from Sigma-Aldrich Co. and Acros (ThermoFisher Scientific, New Jersey, USA). […] The enzyme was obtained from R&D Systems® Corporation in the USA. Synthetic compounds were tested for their inhibitory effects on the enzyme using a 10 mM DMSO stock concentration in triplicates. The manufacturer’s protocol from R & D Systems, Inc. in Minneapolis, MN, USA was followed for the in vitro experiments. The reconstituted Glo-I enzyme (0.5 mg/mL) was thawed after being stored at −70°C in sterile deionized water. […] The monitoring was done at a wavelength of 240 nm for 200 seconds at 37°C. The substrate mixture was freshly concocted with a concentration of 100 mM glutathione and 100 mM methylglyoxal (MG) in assay buffer containing 0.5 M sodium phosphate dibasic/monobasic. It was then left undisturbed at room temperature for 15 minutes […]. The selected compounds for investigation are subsequently produced in testing concentration ranges using a 0.1 M solution of sodium phosphate dibasic/monobasic with a pH range of 7–7.2. The blank contained an assay buffer with MG substrate. The test compounds were combined with human recombinant Glo-I (50 µM) in a 96-well plate to determine their kinetic behavior.

[2] = system: LPS-primed RAW 264.7 murine macrophages (nitrite / iNOS); assay: Anti-inflammatory (nitrite) determination in LPS-primed macrophages; type: cell-based; details: Mus musculus, RAW264.7; LPS-primed RAW 264.7; nitrite by Griess; 24 h; n = 12; read-out: iNOS- IC50 value
Procedure: The RAW 264.7 mouse macrophage cell line (ATCC® TIB-71) was cultivated in high glucose DMEM with 10% foetal bovine serum (FBS), 100 U/mL penicillin, 100 μg/mL streptomycin, and 100 μg/mL L-glutamate. The cells were incubated at 37°C in a humidified environment with 95% air and 5% CO2. Confluent macrophages (2 x 10^5/well) were cultured with lipopolysaccharide (LPS; 20 μg/mL; Sigma, St. Luis, MO, USA) and indomethacin (25–200 μg/mL) as the positive control, along with various concentrations (5–200 μg/mL) of treatment compounds. The cells were incubated for 24 hours. 100 μL of Griess reagent were combined with 100 μL portions of cell culture medium and left to incubate at room temperature for 10 minutes. The absorbance at a wavelength of 550 nm was measured using a microplate reader, namely the Spectro Scan 80D UV-VIS spectrophotometer manufactured by Sedico Ltd. in Nicosia, Cyprus. The nitrite concentration was assessed by comparing it to a standard curve of sodium nitrite. A cytotoxicity protocol using SRB was conducted to assess the impact of the test substances under study on RAW 264.7 viability.

[3] = system: HT-29 colorectal cancer cell line; assay: SRB cytotoxicity assay, HT29; type: cell-based; details: Homo sapiens, 72 h incubation, n = 12, read-out: Cytotoxicity (as of %Control) IC50 value HT29
Procedure: (§1) The cancer cell lines were cultured in DMEM supplemented with 10% FBS (Bio Whittaker, Verviers, Belgium), HEPES Buffer (10 mM), gentamicin (50 µg/mL), L-glutamine (100 μg/mL), streptomycin ([…]), penicillin (100 µg/mL), and 4-(2-hydroxyethyl)-1-piperazineethanesulfonic acid (HEPES) Buffer (Sigma, St. Luis, MO, USA). The Sulforhodamine B used was obtained from Santa Cruz Biotechnology, Inc. in Texas, USA. […] Periodontal ligament fibroblasts (PDL) were utilized to assess specific cytotoxicity. Cancer cell lines that have survived offer several benefits. They provide a consistent and uninterrupted source of cells, so bypassing any ethical concerns related to the use of human tissue. Additionally, they are cost-effective. The cytotoxicity levels were assessed using the Sulforhodamine B (SRB) colorimetric assay, provided by Santa Cruz Biotechnology, Inc. in Texas, USA. The Spectro Scan 80D UV-VIS spectrophotometer, manufactured by Sedico Ltd. in Nicosia, Cyprus, was employed for this cytotoxicity screening. The cells were co-incubated with substances or a reference agent at various doses ranging from 5 to 200 μg/mL. […] The reduction in cell viability was analyzed by plotting Dose-response curves and expressing the data as a percentage of the control optical density. The IC50 values were obtained using regression analysis.

[4] = system: A549 lung cancer cell line; assay: SRB cytotoxicity assay, A549; type: cell-based; details: Homo sapiens, 72 h incubation, n = 12, read-out: Cytotoxicity (as of %Control) IC50 value A549 lung malignancy
Procedure: as §1

[5] = system: CACO2 colorectal cancer cell line; assay: SRB cytotoxicity assay, CACO2; type: cell-based; details: Homo sapiens, Caco-2, 72 h incubation, n = 12, read-out: Cytotoxicity (as of %Control) IC50 value CACO2
Procedure: as §1

[6] = system: A375 human skin cancer cell line; assay: SRB cytotoxicity assay, A375; type: cell-based; details: A-375, 72 h incubation, n = 12, read-out: Cytotoxicity (as of %Control) IC50 value A375 skin melanoma
Procedure: as §1

[7] = system: Breast cancer cell line MCF7; assay: SRB cytotoxicity assay, MCF7; type: cell-based; details: Homo sapiens, 72 h incubation, n = 12, read-out: Cytotoxicity (as of %Control) IC50 value MCF7 mammary malignancy
Procedure: as §1

[8] = system: SW480 colorectal cancer cell line; assay: SRB cytotoxicity assay, SW480; type: cell-based; details: Homo sapiens, 72 h incubation, n = 12, read-out: Cytotoxicity (as of %Control) IC50 value SW480
Procedure: as §1

[9] = system: Human PC3 prostate cancer cell line; assay: SRB cytotoxicity assay, PC3; type: cell-based; details: 72 h incubation, n = 12, read-out: Cytotoxicity (as of %Control) IC50 value PC3 prostate malignancy
Procedure: as §1

[10] = system: PANC1 pancreatic cell line; assay: SRB cytotoxicity assay, PANC1; type: cell-based; details: Homo sapiens, PANC-1, 72 h incubation, n = 12, read-out: Cytotoxicity (as of %Control) IC50 value PANC1
Procedure: as §1

[11] = SRB cytotoxicity assay, normal PDL fibroblasts; type: cell-based; details: normal periodontal ligament (PDL) fibroblasts, 72 h incubation, 0.1–200 µM range, read-out: Cytotoxicity (as of %Control) IC50 value PDL fibroblasts
Procedure: as §1

[12] = system: SW620 colorectal cancer cell line; assay: SRB cytotoxicity assay, SW620; type: cell-based; details: Homo sapiens, SW-620, 72 h incubation, n = 12, read-out: Cytotoxicity (as of %Control) IC50 value SW620
Procedure: as §1

[13] = system: HeLa uterine cervix adenocarcinoma cell line; assay: SRB cytotoxicity assay, HeLa; type: cell-based; details: Homo sapiens, 72 h incubation, n = 12, read-out: Cytotoxicity (as of %Control) IC50 value Hela cervix malignancy
Procedure: as §1

[14] = system: HCT116 colorectal cancer cell line; assay: SRB cytotoxicity assay, HCT116; type: cell-based; details: Homo sapiens, HCT-116, 72 h incubation, n = 12, read-out: Cytotoxicity (as of %Control) IC50 value HCT116
Procedure: as §1

[15] = system: T47D breast cancer cell line; assay: SRB cytotoxicity assay, T47D; type: cell-based; details: Homo sapiens, 72 h incubation, n = 12, read-out: Cytotoxicity (as of %Control) IC50 value T47D mammary malignancy
Procedure: as §1

[16] = read-out: Trial one (%inhibtion)
[17] = read-out: Trial three (%inhibtion)
[18] = read-out: Trial two (%inhibtion)

Oc1cc(O)c2c(c1)O[C@H](c1ccc(O)c(O)c1)[C@@H](O)C2 [(+)Catechin]
activity against Glo-I (in words) [1]: inactive

[O-][Cl+2]([O-])O [Chloric acid]
activity against Glo-I (in words) [1]: inactive

CCN(CC)C(=O)/C(C#N)=C/c1cc(O)c(O)c([N+](=O)[O-])c1 [Entacapone, reference compound]
activity against Glo-I (in words) [1]: loss of activity

Oc1cc(O)c2c(c1)O[C@H](c1cc(O)c(O)c(O)c1)[C@@H](O)C2 [Gallocatechin]
activity against Glo-I (in words) [1]: inactive

NC(CO)C(=O)NNCc1ccc(O)c(O)c1O (stereo not shown) [Benserazide, reference compound]
activity against Glo-I (in words) [1]: ineffective

COc1ccc2c(c1)c(CC(=O)O)c(C)n2C(=O)c1ccc(Cl)cc1 [Indomethacin]
IC50 [2]: 20 nM

CC(=NO)C(C)=NO [Dimethylglyoxime]
activity against Glo-I (in words) [1]: inactive

CC(=O)Nc1nnc(S(N)(=O)=O)s1 [acetazolamide, reference compound]
activity against Glo-I (in words) [1]: did not exhibit any action against Glo-I

Oc1ccc(CC2NCCc3cc(O)c(O)cc32)cc1 (stereo not shown) [Higenamine]
activity against Glo-I (in words) [1]: ineffective

O=c1cccccc1O [Tropolon]
activity against Glo-I (in words) [1]: inactive

O=C(/C=C/c1ccc(O)c(O)c1)O[C@@H]1C[C@@](OC(=O)/C=C/c2ccc(O)c(O)c2)(C(=O)O)C[C@@H](O)[C@@H]1O [cynarine]
activity against Glo-I (in words) [1]: inactive

CC(c1cc2ccccc2s1)N(O)C(N)=O (stereo not shown) [Zileuton, reference compound]
activity against Glo-I (in words) [1]: do not demonstrate efficacy against Glo-I

COc1cccc2c1C(=O)c1c(O)c3c(c(O)c1C2=O)C[C@@](O)(C(=O)CO)C[C@@H]3O[C@H]1C[C@H](N)[C@H](O)[C@H](C)O1 [Doxorubicin, reference compound]
IC50 [3]: 6 nM | IC50 [4]: 280 nM | IC50 [5]: 920 ± 30 nM | IC50 [6]: 280 ± 140 nM | IC50 [7]: 4810 ± 210 nM | IC50 [8]: 10 nM | IC50 [9]: 130 ± 10 nM | IC50 [10]: 7170 ± 1070 nM | IC50 at 72 h [11]: > 200000 nM | IC50 [12]: 650 ± 30 nM | IC50 [13]: 5560 ± 80 nM | IC50 [14]: 920 ± 30 nM | IC50 [15]: 20 nM

Oc1cc(O)c2c(c1)O[C@H](c1ccc(O)c(O)c1)[C@H](O)C2 [(-)Epicatechin]
activity against Glo-I (in words) [1]: inactive

COc1ccc(C[C@@H](C)[C@@H](C)Cc2ccc(OC)c(OC)c2)cc1OC [Terameprocol]
activity against Glo-I (in words) [1]: inactive

Cc1c(O)c(=O)ccn1C [3-Hydroxy-1,2-dimethyl-4(1h)-pyridone]
activity against Glo-I (in words) [1]: inactive

O=C(/C=C/c1ccc(O)c(O)c1)O[C@H]1[C@H](O)[C@@H](O)[C@H](OCCc2ccc(O)c(O)c2)O[C@@H]1CO [Calceolarioside A]
inhibition at 3.125 µM [1, 16]: 15.4% | inhibition at 3.125 µM [1, 17]: 6.7% | inhibition at 3.125 µM [1, 18]: 7.9% | inhibition at 6.25 µM [1, 16]: 14.4% | inhibition at 6.25 µM [1, 17]: 9.01% | inhibition at 6.25 µM [1, 18]: 9.06% | inhibition at 12.5 µM [1, 16]: 25.3% | inhibition at 12.5 µM [1, 17]: 20.9% | inhibition at 12.5 µM [1, 18]: 12% | inhibition at 25 µM [1, 16]: 35.3% | inhibition at 25 µM [1, 17]: 29.6% | inhibition at 25 µM [1, 18]: 27.5% | inhibition at 50 µM [1, 16]: 55.6% | inhibition at 50 µM [1, 17]: 56% | inhibition at 50 µM [1, 18]: 53.5% | Maximum (descriptive statistics of enzyme inhibition) ([1]; highest mean inhibition over the tested concentrations, in % (unit assumed)): 55.00 | IC50 ([1]; human recombinant Glo-I, triplicates, read-out: IC50 µM ± SD): 44.3 ± 18.6 µM | Minimum (descriptive statistics of enzyme inhibition) ([1]; lowest mean inhibition over the tested concentrations, in % (unit assumed)): 10.00 | IC50 [7]: 899000 ± 179000 nM | IC50 at 72 h [11]: > 200000 nM | IC50 [13]: 208000 ± 34800 nM | IC50 [15]: 45600 ± 3460 nM

O=C(/C=C/c1ccc(O)c(O)c1)O[C@@H]1[C@H](O)C[C@@](O)(C(=O)O)C[C@H]1OC(=O)/C=C/c1ccc(O)c(O)c1 [3,4-diaffeoylquinic acid]
activity against Glo-I (in words) [1]: inactive

O=C(CCCCCCC(=O)Nc1ccccc1)NO [SAHA, reference compound]
activity against Glo-I (in words) [1]: do not demonstrate efficacy against Glo-I
